The values below come from ChEMBL document CHEMBL6109095, “Impact of fixed phosphorus position on activity of triazole bisphosphonates as geranylgeranyl diphosphate synthase inhibitors” (Bioorg Med Chem, 2025).

Molecules are shown by their SMILES. pIC50: −log10 of the molar value. Activity calls are given as the source filed them. The calls are words filed in the database; no cut-off is given here.

In data set [1] the target is T1, Geranylgeranyl pyrophosphate synthase (Homo sapiens) (UniProt O95749).
T1 sequence (whole entry): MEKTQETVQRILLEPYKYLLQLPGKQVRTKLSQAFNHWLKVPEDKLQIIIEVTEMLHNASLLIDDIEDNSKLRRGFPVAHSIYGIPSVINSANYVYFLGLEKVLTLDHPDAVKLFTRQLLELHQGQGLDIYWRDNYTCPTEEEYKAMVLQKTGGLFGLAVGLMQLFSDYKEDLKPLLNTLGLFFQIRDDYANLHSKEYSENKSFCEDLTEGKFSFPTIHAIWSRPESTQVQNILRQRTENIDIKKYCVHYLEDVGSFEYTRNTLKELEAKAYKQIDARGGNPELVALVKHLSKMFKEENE
The experiment in a line: Inhibition of GGDPS in human RPMI-8226 cells assessed as lowest effective concentration required to show unmodified Rap1a band measured after 48 hrs by immunoblot analysis. The data set is classed as cell-based. Background: Immunoblotting shows a protein as a band on a membrane.

Data set [2] deals with T1, Geranylgeranyl pyrophosphate synthase (Homo sapiens). The experiment in a line: Inhibition of GGDPS in human RPMI-8226 cells assessed as lowest effective concentration required for increase in intracellular lambda chain level after 48 hrs by ELISA. The data set is classed as cell-based.
Data set [3] has the same target. The experiment in a line: Inhibition of GGDPS in human MG-63 cells assessed as lowest effective concentration required to show unmodified Rap1a band measured after 48 hrs by immunoblot analysis. The data set is classed as cell-based.
Data set [4] has the same target. The data set can be described thus: Inhibition of GGDPS in human 143B cells assessed as lowest effective concentration required to show unmodified Rap1a band measured after 48 hrs by immunoblot analysis. The data set is classed as cell-based.
For data set [5] the target is unchanged. The data set can be described thus: Inhibition of GGDPS in human SAOS-2 cells assessed as lowest effective concentration required to show unmodified Rap1a band measured after 48 hrs by immunoblot analysis. The data set is classed as cell-based.
For data set [6] the target is unchanged. The experiment in a line: Inhibition of GGDPS in human MM1.S cells assessed as appearance of unmodified Rap1a band measured after 48 hrs by immunoblot analysis. The data set is classed as cell-based.
For data set [7] the target is unchanged. The data set can be described thus: Inhibition of GGDPS in human 143B cells assessed as appearance of unmodified Rap1a band at 0.1 to 1 uM measured after 48 hrs by immunoblot analysis. The data set is classed as cell-based. To be noted: dose 0.1-1 µM.
For data set [8] the target is unchanged. The experiment in a line: Inhibition of GGDPS in human MG-63 cells assessed as appearance of unmodified Rap1a band at 0.1 to 1 uM measured after 48 hrs by immunoblot analysis. The data set is classed as cell-based. To be noted: dose 0.1-1 µM.
Data set [9] shares this target. The data set can be described thus: Inhibition of GGDPS in human SAOS-2 cells assessed as appearance of unmodified Rap1a band at 0.1 to 1 uM measured after 48 hrs by immunoblot analysis. It is filed as cell-based. To be noted: dose 0.1-1 µM.
Data set [10] has the same target. The data set can be described thus: Inhibition of GGDPS in human RPMI-8226 cells assessed as increase in intracellular lambda chain level up to 100 uM after 48 hrs by ELISA. The data set is classed as cell-based. A general note: An ELISA detects its analyte on a solid surface through an enzyme-linked reagent.
In data set [11] the target is T2, Geranylgeranyl pyrophosphate synthase (Homo sapiens, UniProt O95749).
T2 sequence (O95749 whole entry): T1 sequence (whole entry)
The experiment in a line: Inhibition of recombinant GGDPS (unknown origin) using [14C] IPP and FPP as substrate preincubated for 10 mins followed by substrate addition and measured after 30 mins by scintillation counting method.

In data set [12] the target is T1, Geranylgeranyl pyrophosphate synthase (Homo sapiens). The data set can be described thus: Inhibition of GGDPS in human RPMI-8226 cells assessed as appearance of unmodified Rap1a band up to 100 uM measured after 48 hrs by immunoblot analysis. It is filed as cell-based.
Data set [13] has the same target. The experiment in a line: Inhibition of GGDPS in human MM1.S cells assessed as appearance of unmodified Rap1a band at 1 to 100 uM measured after 48 hrs by immunoblot analysis. The data set is classed as cell-based. The settings on record: dose 1-100 µM.
Data set [14] is described as follows: Apparent permeability of the compound by PAMPA. It is filed as ADME. (In general: In PAMPA a lipid-coated filter parts donor from acceptor wells.)
The target in data set [15] is T1, Geranylgeranyl pyrophosphate synthase (Homo sapiens). The data set can be described thus: Inhibition of GGDPS in human MM1.S cells assessed as lowest effective concentration required to show unmodified Rap1a band measured after 48 hrs by immunoblot analysis. It is filed as cell-based.
Data set [16] has as its system 143B. The data set can be described thus: Cytotoxicity against human 143B cells assessed as reduction in cell viability up to 10 uM measured after 48 hrs by MTT assay. The data set is classed as functional, cell-based.
The test system of data set [17] is RPMI-8226. The experiment in a line: Cytotoxicity against human RPMI-8226 cells assessed as reduction in cell viability up to 10 uM measured after 48 hrs by MTT assay. It is filed as functional, cell-based.

With `CC(C)=CCCC(C)=CCn1cc(C2CC2(P(=O)(O)O)P(=O)(O)O)nn1` (stereo unspecified), the LED in [1] and in data set [2] was 0.5 µM throughout.
Consider `CC(C)=CCC/C(C)=C/CCn1cc(C2CC2(P(=O)(OCOC(=O)C(C)(C)C)OCOC(=O)C(C)(C)C)P(=O)(OCOC(=O)C(C)(C)C)OCOC(=O)C(C)(C)C)nn1` (stereo unspecified), for which the LED in [3], in [1], in data set [4], in [2] and in data set [5] was 5 µM each time. Besides, the inhibition result in data set [6] is “Not active; No Evidence Of Disruption Of Geranylgeranylation Was Observed”.
For `CC(C)=CCCC(C)=CCn1cc(C=C(P(=O)(O)O)P(=O)(O)O)nn1`, the LED in data set [1] and in [2] was 0.25 µM each time.
Turning to `CC(C)=CCCC(C)=CCn1cc(CC(P(=O)(O)O)P(=O)(O)O)nn1`, the LED in [1] and in data set [2] was 0.5 µM in each case.
With `CC(C)=CCC/C(C)=C/CCn1cc(C2OC2(P(=O)(O)O)P(=O)(O)O)nn1` (stereo unspecified), the inhibition entry in [7], in data set [8] and in [9] was “Active” in each case. In addition, the inhibition entry in [10] and in data set [12] was “inactive” each time. Besides, the pIC50 (usually the IC50 on a negative log10 scale, so that one unit is a factor of ten) in data set [11] is 6.35.
As to `CC(C)=CCC/C(C)=C/CCn1cc(CC(P(=O)(O)O)P(=O)(O)O)nn1`, the LED in [1] and in data set [2] was 0.09 µM in each case.
Regarding `CC(C)=CCC/C(C)=C/CCn1cc(C2CC2(P(=O)([O-])[O-])P(=O)([O-])[O-])nn1.[Na+].[Na+].[Na+].[Na+]` (stereo unspecified), the LED is 5 µM in data set [3]; 100 µM in data set [1]; 5 µM in data set [4]; 100 µM in data set [2]; 5 µM in data set [5]. For the same compound, the inhibition entry in data set [13] is “Not active; No Appreciable Activity Observed”. In [11], the negative logarithm of the IC50 (pIC50) was 6.05. The Papp in data set [14] is given as 0.061 10^-6 cm/s.
`CC(C)=CCC/C(C)=C/CCn1cc(CC(C)(P(=O)(O)O)P(=O)(O)O)nn1`: the LED in data set [1] and in [2] was 0.02 µM throughout.
On to `CC(C)=CCCC(C)=CCn1cc(C2OC2(P(=O)(O)O)P(=O)(O)O)nn1` (stereo unspecified), for which the LED in [3] is 5 µM; in data set [1] it was 5 µM; in data set [4] it was 5 µM; in data set [15], 5 µM; in data set [2], 5 µM; in data set [5], 0.5 µM. Besides, the negative-log IC50 (pIC50) in data set [11] was 4.96.
Regarding `CC(C)=CCC/C(C)=C\CCn1cc(C2OC2(P(=O)(O)O)P(=O)(O)O)nn1` (stereo unspecified), the inhibition result in data set [7], in [8] and in [9] was “Active” each time. Besides, the LED in data set [1] and in data set [2] was 2.5 µM in each case. Also, the pIC50 in data set [11] is 5.63.
Consider `CC(C)=CCCC(C)CCCn1cc(C=C(P(=O)(O)O)P(=O)(O)O)nn1` (stereo unspecified), for which the LED in data set [1] and in data set [2] was 50 µM in each case. The negative-log IC50 (pIC50) in data set [11] was below 4.00.
Consider `CC(C)=CCCC(C)CCCn1cc(C2CC2(P(=O)(O)O)P(=O)(O)O)nn1` (stereo unspecified), for which the inhibition result in data set [10] and in data set [12] was “inactive” each time. Besides, in [11], the pIC50 was below 4.00.
Regarding `CC(C)=CCCC(C)=CCCn1cc(CC(P(=O)(O)O)P(=O)(O)O)nn1`, the LED in data set [1] and in [2] was 0.03 µM in each case.
In the case of `CC(C)=CCC/C(C)=C\CCn1cc(C=C(P(=O)(O)O)P(=O)(O)O)nn1`, the outcome in data set [16] and in data set [17] was Active. Moreover, the LED is 0.25 µM in data set [3]; 0.25 µM in [1]; 0.25 µM in data set [4]; 0.25 µM in data set [15]; 0.25 µM in [2]; 0.01 µM in data set [5]. In addition, in data set [11], the negative logarithm of the IC50 (pIC50) is 6.43.
As for `CC(C)=CCC/C(C)=C\CCn1cc(C2CC2(P(=O)([O-])[O-])P(=O)([O-])[O-])nn1.[Na+].[Na+].[Na+].[Na+]` (stereo unspecified), the LED in data set [3] came to 50 µM; in [1], 100 µM; in data set [4], 50 µM; in data set [2] it was 100 µM; in [5], 50 µM. Besides, the inhibition entry in [13] was “Not active; No Appreciable Activity Observed”. In addition, in [11], the pIC50 was 5.54. For the same compound, the Papp in [14] was 0.283 10^-6 cm/s.
For `CC(C)=CCC/C(C)=C/CCn1cc(C=C(P(=O)(O)O)P(=O)(O)O)nn1`, the result in data set [16] and in data set [17] was Active. For the same compound, the LED in [3] was found to be 0.25 µM; in data set [1] it was 0.25 µM; in [4], 0.25 µM; in [15], 0.25 µM; in data set [2], 0.25 µM; in data set [5], 0.01 µM. Moreover, the negative-log IC50 (pIC50) in data set [11] was 6.40.
For the compound `CC(C)=CCCC(C)CCCn1cc(CC(P(=O)(O)O)P(=O)(O)O)nn1` (stereo unspecified), the LED in [1] and in data set [2] was 10 µM each time. Moreover, the pIC50 in [11] was 4.60.
With `CC(C)=CCC/C(C)=C\CCn1cc(CC(C)(P(=O)(O)O)P(=O)(O)O)nn1`, the LED in data set [1] was 0.025 µM.
